# Results taken from paper PMC7754465, “Multiparameter Kinetic Analysis for Covalent Fragment Optimization by Using Quantitative Irreversible Tethering (qIT)” (Chembiochem, 2020).
# Molecular target: T1, Cdk2(ES) (Homo sapiens, UniProt P24941, C177A/F80C)
# T1 construct: GST (N, cleaved yes); made in house; host or cells: E. coli Tuner(DE3)
# Assay: concentration-dependent qIT with hyperbolic regression (Ki, kinact)
# Format: binding
# Conditions: roughly linear dependency up to 500 μM
# Protocol: Next we sought to carry out comprehensive kinetic analysis of the covalent binding to better understand the covSAR trends. Accordingly, the concentration dependency for the rate of reaction between Cdk2(ES) and key acrylamides 1, 6, 9 and 11 were determined using qIT (Figure 7c). To maintain pseudo‐first‐order reaction kinetics and stay within the solubility limits of the fragments, ligands were titrated from 25 to 500 μM. […] Indeed, comparing the binding conformations of the merged (9 and 11) and parent (1 and 6) fragments, we observe a subtle shift in the position of the core scaffolds and the orientation of the acrylamide link that likely explains the jump in potency that resulted from fragment merging. Overall, comparing acrylamides 9 and 11, we observe in a 3.7‐fold increase in k inact/K i and a 4.3‐fold increase in REF, and the consistency between these two orthogonal metrics of covalent fragment potency is encouraging for future applications of qIT to covalent fragment optimization.
# H. Intact-protein mass spectrometry
# Protein-mass data were obtained on a Waters micromass LC-TOF mass spectrometer in positive ion mode using electrospray ionization. Samples were chromatographed using an Acquity UPLC protein BEH C4 column (2.1 mm × 50 mm, 2.7 µm) with a flow rate of 30 µL/min. The injection volume was 5 µL of protein solution (5 µM) in 30 mM ammonium bicarbonate buffer con-taining 0.5% formic acid and 20% MeOH. The gradient used was 100% mobile phase A (0.1% formic acid in water/MeOH (19:1)) ramping linearly to 90% mobile phase B (0.1% formic acid in MeOH) over 5 minutes. The spectra were acquired from 500 to 2500 Da and deconvolution was performed with MassLynx (Waters), using the maximum entropy algorithm, over a mass range of […] with a mass step of 0.75. […]
# Cdk2(WT) or Cdk2(ES) (1 mg) was sequentially incubated with aliquots of CAK1 (3 × 0.05 mg) at r.t. for 4 hours at a time in 1.5 mL of a 30 mM Tris/HCl buffer (pH 7.5) containing 10 mM MgCl2, 10 mM ATP and 3 mM DTT. As CAK1 appeared to be-come rapidly inactivated in the presence of pCdk2, three repetitions were required to drive the reaction to completion. The resulting solution was incubated with 50 µL of glutathione-Sepharose beads and filtered to remove remaining CAK1.
# Kinase assays were performed by coupling the conversion of ATP into ADP to the oxidation of NADH (Abs = 340 nm) into NAD+, mediated by lactate dehydrogenase (LDH) and pyruvate kinase (PK). WT, mutant or ligand-conjugated pCdk2 (12.5 or 50 nM) was preincubated with Cyclin A2 (20 nM) in a buffer containing 50 mM Tris/HCl, 10 mM MgCl2, 5 mM DTT, 1 mM phosphoenolpyruvate, 0.24 mM NADH, 10 U mL-1 LDH, 14 U mL-1 PK and 5% DMSO at 37 °C for 30 minutes. Reactions were initiated by addition of 0.5 mM ATP and 0.24 mM substrate peptide (PKTPKKAKKL) and the absorbance at 340 nm was moni-tored for two hours. Assays were conducted at 37 °C and carried out in clear 384-well plates (Nunc) using a SpectraMax i3x plate reader (Molecular Devices) with a final volume of 20 µL in each well. After plotting Abs 340 against time, enzyme velocity was measured from the gradient during the linear phase of product accumulation.
# Q. Concentration dependent qIT
# The rate of reaction (kobs) for the reaction between each acrylamide (25, 50, 125, 250 and 500 µM) with Cdk2(ES) (5 µM) was determined us qIT (see D. Rate Determination by qIT) in duplicate. The average kobs was plotted against acrylamide concen-tration and hyperbolic regression analysis performed using Prism 8.0 software (GraphPad) to derive kinact and Ki.
row,Ki,Compound
1,> 1 mM,C=CC(=O)N1CCCc2cc(C(=O)OC)ccc21 [compound 1]
2,> 1 mM,C=CC(=O)N1CCN(CC)c2ccccc21 [compound 6]
